Key:
cyclooxygenase = cyclooxygenase (Homo sapiens, UniProt P23219); assay: cyclooxygenase enzyme assay, % inhibition (CO); type: biochemical; conditions: for inhibition at 0.5 µg/mL: Dosage 0.5 μg/ml; for inhibition at 1 µg/mL: Dosage 1.0 μg/ml; for inhibition at 5 µg/mL: Dosage 5.0 μg/ml; for inhibition at 0.1 µg/mL: Dosage 0.1 μg/ml
5-lipoxygenase = target: T1, 5-lipoxygenase (Homo sapiens, UniProt P09917); assay: 5-lipoxygenase enzyme assay, % inhibition (5-LO); type: biochemical; conditions: for inhibition at 1 µg/mL: Dosage 1.0 μg/ml
T1 sequence (P09917 1-674): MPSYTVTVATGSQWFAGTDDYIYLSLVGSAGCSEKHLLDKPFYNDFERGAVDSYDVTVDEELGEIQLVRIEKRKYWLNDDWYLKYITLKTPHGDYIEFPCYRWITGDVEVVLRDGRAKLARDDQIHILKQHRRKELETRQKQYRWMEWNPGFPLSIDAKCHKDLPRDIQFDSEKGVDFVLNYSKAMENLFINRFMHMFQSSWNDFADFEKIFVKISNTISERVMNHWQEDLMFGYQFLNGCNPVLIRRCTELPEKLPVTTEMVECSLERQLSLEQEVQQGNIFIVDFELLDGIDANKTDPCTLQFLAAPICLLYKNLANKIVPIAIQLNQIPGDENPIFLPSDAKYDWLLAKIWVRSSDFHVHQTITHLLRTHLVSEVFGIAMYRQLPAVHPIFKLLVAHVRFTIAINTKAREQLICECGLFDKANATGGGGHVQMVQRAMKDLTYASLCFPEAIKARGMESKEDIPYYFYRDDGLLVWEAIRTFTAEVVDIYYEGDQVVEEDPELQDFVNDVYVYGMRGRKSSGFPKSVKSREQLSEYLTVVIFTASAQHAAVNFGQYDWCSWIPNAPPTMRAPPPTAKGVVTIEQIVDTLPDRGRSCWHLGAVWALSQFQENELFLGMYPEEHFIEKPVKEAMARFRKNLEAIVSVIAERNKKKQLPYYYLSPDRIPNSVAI

[1] = solubility remark (footnote of table 9); type: physicochemical; conditions: footnote to 5-LO value at 100 μg/ml
gastric acid secretion = conditions: S. Szabo et al., Experimentia, 38, 254, 1982; cited from earlier work
gastric cytoprotection = conditions: S. Szabo et al., Experimentia, 38, 254, 1982; cited from earlier work

Sequence of cyclooxygenase (P23219 24-599): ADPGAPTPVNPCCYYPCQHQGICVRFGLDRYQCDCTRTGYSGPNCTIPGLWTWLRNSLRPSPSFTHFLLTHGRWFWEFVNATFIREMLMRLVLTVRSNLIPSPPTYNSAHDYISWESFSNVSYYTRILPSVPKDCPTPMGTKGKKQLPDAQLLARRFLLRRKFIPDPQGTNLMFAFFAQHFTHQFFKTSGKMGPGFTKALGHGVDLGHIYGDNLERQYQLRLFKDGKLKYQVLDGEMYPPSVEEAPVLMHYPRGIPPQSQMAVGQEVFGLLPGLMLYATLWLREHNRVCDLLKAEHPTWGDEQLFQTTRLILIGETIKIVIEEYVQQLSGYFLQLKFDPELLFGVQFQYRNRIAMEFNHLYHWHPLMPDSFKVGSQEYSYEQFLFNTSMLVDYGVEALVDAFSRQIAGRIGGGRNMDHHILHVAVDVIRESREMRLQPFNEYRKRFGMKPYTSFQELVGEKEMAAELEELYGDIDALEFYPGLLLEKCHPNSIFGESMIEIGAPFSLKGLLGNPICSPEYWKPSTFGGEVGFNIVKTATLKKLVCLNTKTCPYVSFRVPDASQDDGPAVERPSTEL

Structure (SMILES): COC(=O)c1cc2oc(C(=O)NC=C(c3ccccc3)c3ccccc3)c(O)c2s1 [O phenyl phenyl CO2 CH3, N-(2,2-Diphenylethenyl)-5-carbomethoxy-3-hydroxythieno[3,2-b]furan-2-carboxamide]
- inhibition at 0.5 µg/mL (cyclooxygenase): 95%
- inhibition at 1 µg/mL (cyclooxygenase): 98%
- inhibition at 2 µg/mL (cyclooxygenase; Dosage 2.0 μg/ml): 98%
- inhibition at 5 µg/mL (cyclooxygenase): 100%
- inhibition at 0.5 µg/mL (5-lipoxygenase; Dosage 0.5 μg/ml): 30%
- inhibition at 5 µg/mL (5-lipoxygenase; Dosage 5.0 μg/ml): 34%

Structure (SMILES): Cc1ccc(C(=CNC(=O)c2sc3ccsc3c2O)c2ccco2)cc1 [S p-tolyl 2-furyl H, N-[2-(2-Furyl)-2-(4-methylphenyl)ethenyl]-3-hydroxythieno[3,2-b]thiophene-2-carboxamide]
- inhibition at 0.1 µg/mL (cyclooxygenase): 49%
- inhibition at 1 µg/mL (cyclooxygenase): 97%
- inhibition at 5 µg/mL (cyclooxygenase): 98%
- inhibition at 10 µg/mL (cyclooxygenase; Dosage 10.0 μg/ml): 100%
- inhibition at 0.1 µg/mL (5-lipoxygenase; Dosage 0.1 μg/ml): 11%
- inhibition at 1 µg/mL (5-lipoxygenase): 14%
- inhibition at 10 µg/mL (5-lipoxygenase; Dosage 10.0 μg/ml): 66%

Structure (SMILES): COC(=O)c1cc2sc(C(=O)NC=C(c3ccccc3)c3ccccc3)c(O)c2s1 [S phenyl phenyl CO2 CH3, 5-Carbomethoxy-N-(2,2-diphenylethenyl)-3-hydroxythieno[3,2-b]thiophene-2-carboxamide]
- inhibition at 0.01 µg/mL (cyclooxygenase; Dosage 0.01 μg/ml): 9%
- inhibition at 0.05 µg/mL (cyclooxygenase; Dosage 0.05 μg/ml): 33%
- inhibition at 0.5 µg/mL (cyclooxygenase): 80%
- inhibition at 5 µg/mL (cyclooxygenase): 100%
- inhibition at 100 µg/mL (cyclooxygenase; Dosage 100 μg/ml): 100%
- inhibition at 100 µg/mL (5-lipoxygenase): 12%
- solubility (footnote) [1]: very insoluble

Structure (SMILES): O=C(NC=C(c1ccccc1)c1ccccc1)c1sc2ccsc2c1O [S phenyl phenyl H, N-(2,2-diphenylethenyl)-3-hydroxythieno[3,2-b]thiophene-2-carboxamide]
- inhibition at 0.1 µg/mL (cyclooxygenase): 39%
- inhibition at 0.48 µg/mL (cyclooxygenase; Dosage 0.48 μg/ml): 99%
- inhibition at 1 µg/mL (cyclooxygenase): 100%
- inhibition at 2.4 µg/mL (cyclooxygenase; Dosage 2.40 μg/ml): 100%
- inhibition at 1 µg/mL (5-lipoxygenase): 34%

Structure (SMILES): CCCCC[C@H](O)/C=C/[C@@H]1[C@@H](C/C=C\CCCC(=O)O)[C@H](O)C[C@H]1O [protaglandin F2B]
- inhibition of gastric acid secretion (gastric acid secretion): does not inhibit gastric acid secretion
- gastric cytoprotection (gastric cytoprotection): does induce gastric cytoprotection
